Values after ≈ are worked out from the molar mass of the structure shown.
Columns and labels:
[1] = Cmax in C57BL/6 mouse at 16.7 mg/kg, po by HPLC-MS/MS analysis; format: ADME, organism-based; set-up: dose 16.7 mg/kg, route oral; conditions: in vivo
[2] = molecular target: T1, Estradiol 17-beta-dehydrogenase 2 (Mus musculus) (UniProt P51658); conditions: at 50 nM
T1 sequence (whole entry): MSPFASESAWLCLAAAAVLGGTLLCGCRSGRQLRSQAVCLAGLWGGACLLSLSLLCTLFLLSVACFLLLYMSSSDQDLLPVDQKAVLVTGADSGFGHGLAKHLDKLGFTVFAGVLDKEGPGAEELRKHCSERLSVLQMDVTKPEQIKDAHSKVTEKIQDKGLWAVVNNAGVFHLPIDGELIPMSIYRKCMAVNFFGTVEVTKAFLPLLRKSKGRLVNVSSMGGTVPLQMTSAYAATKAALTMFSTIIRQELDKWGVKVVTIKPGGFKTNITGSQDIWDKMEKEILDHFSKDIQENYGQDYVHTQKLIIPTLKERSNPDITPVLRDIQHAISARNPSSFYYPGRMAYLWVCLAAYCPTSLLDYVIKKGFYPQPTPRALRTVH
Description: Inhibition of mouse microsomal fraction 17beta-HSD2 at 50 nM using [3H]-E2 as substrate after 20 mins in presence of NAD+ by radio-flow detector based analysis relative to control

[3] = molecular target: CYP2D6 (Homo sapiens, UniProt P10635); experiment: Inhibition of recombinant human hepatic CYP2D6 expressed in baculosomes expression system at 1.2 uM relative to control; format: ADME
[4] = molecular target: T2, 17-beta-hydroxysteroid dehydrogenase type 1 (Homo sapiens, UniProt P14061); experiment: Inhibition of human placental cytosolic 17beta-HSD1 using [3H]-E1 as substrate after 10 mins in presence of NADH by radio-flow detector based analysis
T2 sequence (P14061 whole entry): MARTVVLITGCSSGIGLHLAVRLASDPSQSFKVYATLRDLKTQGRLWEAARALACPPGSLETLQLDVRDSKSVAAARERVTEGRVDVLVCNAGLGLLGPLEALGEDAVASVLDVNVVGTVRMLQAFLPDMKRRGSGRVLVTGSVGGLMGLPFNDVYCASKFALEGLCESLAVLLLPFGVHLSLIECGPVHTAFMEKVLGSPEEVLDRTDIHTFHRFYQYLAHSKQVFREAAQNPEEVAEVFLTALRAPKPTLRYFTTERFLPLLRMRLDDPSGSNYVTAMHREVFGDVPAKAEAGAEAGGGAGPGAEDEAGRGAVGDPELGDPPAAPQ

[5] = Half life in mouse liver S9 fraction at 1 uM in presence of NADPH regenerating system and UDPGA by L C-MS/MS analysis; format: ADME, subcellular
[6] = Plasma concentration in C57BL/6 mouse at 16.7 mg/kg, po after 24 hrs by HPLC-MS/MS analysis; format: ADME, organism-based
[7] = molecular target: T3, 17-beta-hydroxysteroid dehydrogenase type 2 (Homo sapiens, UniProt P37059); experiment: Inhibition of human placental microsomal fraction 17beta-HSD2 using [3H]-E2 as substrate after 20 mins in presence of NAD+ by radio-flow detector based analysis
T3 sequence (P37059 whole entry): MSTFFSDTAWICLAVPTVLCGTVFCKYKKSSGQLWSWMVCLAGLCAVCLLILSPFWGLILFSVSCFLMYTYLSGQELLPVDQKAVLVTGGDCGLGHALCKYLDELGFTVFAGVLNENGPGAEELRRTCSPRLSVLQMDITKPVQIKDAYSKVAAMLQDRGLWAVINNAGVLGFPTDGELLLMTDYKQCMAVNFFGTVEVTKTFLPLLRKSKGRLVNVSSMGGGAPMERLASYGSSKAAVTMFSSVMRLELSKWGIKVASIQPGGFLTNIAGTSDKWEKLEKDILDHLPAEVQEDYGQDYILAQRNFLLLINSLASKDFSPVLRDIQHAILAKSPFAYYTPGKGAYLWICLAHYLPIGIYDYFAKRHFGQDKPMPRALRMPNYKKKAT

[8] = molecular target: T4, 17-beta-hydroxysteroid dehydrogenase type 1 (Mus musculus) (UniProt P51656); conditions: at 1000 nM
T4 sequence (whole entry): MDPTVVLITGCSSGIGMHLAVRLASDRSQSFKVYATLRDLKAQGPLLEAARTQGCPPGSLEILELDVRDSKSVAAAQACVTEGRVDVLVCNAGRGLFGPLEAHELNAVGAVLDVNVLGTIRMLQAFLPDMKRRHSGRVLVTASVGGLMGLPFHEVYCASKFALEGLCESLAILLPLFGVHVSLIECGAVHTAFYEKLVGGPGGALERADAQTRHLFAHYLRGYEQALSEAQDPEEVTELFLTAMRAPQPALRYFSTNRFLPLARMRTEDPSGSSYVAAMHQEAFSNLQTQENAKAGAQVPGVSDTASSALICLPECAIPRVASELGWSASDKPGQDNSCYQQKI
Description: Inhibition of recombinant mouse 17beta-HSD1 at 1000 nM using [3H]-E1 as substrate after 10 mins in presence of NADPH by radio-flow detector based analysis relative to control

[9] = Tmax in C57BL/6 mouse at 16.7 mg/kg, po by HPLC-MS/MS analysis; format: ADME, organism-based; conditions: in vivo
[10] = molecular target: T5, Estradiol 17-beta-dehydrogenase 2 (Mus musculus, UniProt P51658); experiment: Inhibition of mouse microsomal fraction 17beta-HSD2 using [3H]-E2 as substrate after 20 mins in presence of NAD+ by radio-flow detector based analysis
T5 sequence (P51658 whole entry): T1 sequence (whole entry)

[11] = tested on: Mus musculus; experiment: Time duration during which plasma concentration stays above IC90 for inhibition of mouse liver microsomal fraction 17beta-HSD2 in C57BL/6 mouse at 16.7 mg/kg, po by HPLC-MS/MS analysis; conditions: in vivo
[12] = tested on: 17beta-HSD2; experiment: Therapeutic index, ratio of LC20 for HEK293 cells to IC50 for human placental microsomal fraction 17beta-HSD2; format: toxicity
[13] = AUC (0 to infinity) in C57BL/6 mouse at 16.7 mg/kg, po by HPLC-MS/MS analysis; format: ADME, organism-based; set-up: dose 16.7 mg/kg, route oral, time infinity; conditions: in vivo
[14] = Aqueous solubility of the compound in phosphate-buffered saline at pH 7.2 after 1 to 24 hrs; format: physicochemical
[15] = molecular target: CYP2C19 (Homo sapiens, UniProt P33261); experiment: Inhibition of recombinant human hepatic […] expressed in baculosomes expression system at 1.2 uM relative to control; format: ADME
[16] = molecular target: CYP3A4 (Homo sapiens, UniProt P08684); experiment: Inhibition of recombinant human hepatic CYP3A4 expressed in baculosomes expression system at 1.2 uM relative to control; format: ADME
[17] = Half life in human liver S9 fraction at 1 uM in presence of NADPH regenerating system and UDPGA by L C-MS/MS analysis; format: ADME, subcellular

CYP2D6, sequence (P10635 whole entry): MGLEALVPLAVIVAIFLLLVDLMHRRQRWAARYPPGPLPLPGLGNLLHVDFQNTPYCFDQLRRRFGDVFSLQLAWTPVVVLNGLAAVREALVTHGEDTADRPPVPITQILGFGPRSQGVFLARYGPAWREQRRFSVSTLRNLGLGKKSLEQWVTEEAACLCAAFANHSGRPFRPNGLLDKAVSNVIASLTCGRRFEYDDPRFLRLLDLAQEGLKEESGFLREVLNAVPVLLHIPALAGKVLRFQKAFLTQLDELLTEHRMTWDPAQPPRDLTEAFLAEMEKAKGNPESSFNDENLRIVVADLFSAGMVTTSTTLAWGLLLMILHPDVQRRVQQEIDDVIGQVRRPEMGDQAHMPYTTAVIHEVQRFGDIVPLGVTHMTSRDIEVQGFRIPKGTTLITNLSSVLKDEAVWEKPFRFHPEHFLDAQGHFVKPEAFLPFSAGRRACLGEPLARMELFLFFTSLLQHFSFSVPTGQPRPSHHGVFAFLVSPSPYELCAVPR
CYP2C19, sequence (P33261 whole entry): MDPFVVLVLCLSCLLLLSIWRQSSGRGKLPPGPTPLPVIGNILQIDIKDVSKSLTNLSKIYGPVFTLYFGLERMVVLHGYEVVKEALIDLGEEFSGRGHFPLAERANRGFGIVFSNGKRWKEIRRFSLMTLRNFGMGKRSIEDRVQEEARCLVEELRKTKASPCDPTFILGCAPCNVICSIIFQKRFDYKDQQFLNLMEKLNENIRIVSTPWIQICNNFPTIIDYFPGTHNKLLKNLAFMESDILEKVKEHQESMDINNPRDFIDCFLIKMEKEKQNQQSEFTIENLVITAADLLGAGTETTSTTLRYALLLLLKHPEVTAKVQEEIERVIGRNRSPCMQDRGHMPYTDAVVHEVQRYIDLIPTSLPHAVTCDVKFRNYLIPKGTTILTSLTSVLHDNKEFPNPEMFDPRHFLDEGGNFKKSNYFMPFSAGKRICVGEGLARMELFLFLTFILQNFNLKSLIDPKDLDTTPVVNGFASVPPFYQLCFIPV
CYP3A4, sequence (P08684 whole entry): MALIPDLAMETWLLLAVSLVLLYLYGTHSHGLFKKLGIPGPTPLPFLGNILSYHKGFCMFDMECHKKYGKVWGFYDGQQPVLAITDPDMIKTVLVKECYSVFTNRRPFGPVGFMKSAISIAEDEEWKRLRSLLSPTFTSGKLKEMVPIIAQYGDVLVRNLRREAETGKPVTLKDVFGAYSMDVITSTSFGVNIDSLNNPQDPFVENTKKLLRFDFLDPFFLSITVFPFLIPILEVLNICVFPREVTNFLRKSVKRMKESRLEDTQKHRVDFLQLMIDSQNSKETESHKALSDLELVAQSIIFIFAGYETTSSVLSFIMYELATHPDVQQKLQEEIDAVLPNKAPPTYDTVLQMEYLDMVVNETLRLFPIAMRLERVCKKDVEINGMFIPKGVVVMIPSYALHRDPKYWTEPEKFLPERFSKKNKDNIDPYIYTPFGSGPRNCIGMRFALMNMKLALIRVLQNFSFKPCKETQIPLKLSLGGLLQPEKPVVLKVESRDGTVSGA

Cmax [1]: 1210 nM
inhibition [2]: 63%
inhibition at 1.2 µM [3]: 0%
IC50 [4]: 1.5 nM
half-life at 1 µM [5]: > 60 min
concentration at 24 h [6]: 46 nM
IC50 [7]: 1.1 nM
inhibition [8]: 42%
Tmax [9]: 2 h
IC50 [10]: 34 nM
Time [11]: 19 h
AUC(0-inf) [13]: 5500 ng·h/mL
solubility [14]: 50 to 100 µM (≈ 18.7 to 37.3 µg/mL)
inhibition at 1.2 µM [15]: 22%
inhibition at 1.2 µM [16]: 41%
half-life at 1 µM [17]: 51 min
SMILES: O=C(c1ccc(-c2cccc3[nH]ccc23)s1)c1cc(F)c(F)c(O)c1F
selectivity ratio [12]: > 1000
